The test system of one series is MPTP-treated mice. The series is described as follows: MPTP mouse Parkinson's model, striatal dopamine and metabolites by HPLC. Type of series: in vivo, C57BL mice. The note with it: for DA / DOPAC / HVA: striatal level, peptide 1 mg/kg intranasal, divided by total protein and normalized to vehicle treated mice. On the procedure:
C57BL mice (all male, age 8-12 weeks, obtained from Harlan Laboratories Israel) were administered with 18 mg/kg MPTP (Sigma-Aldrich) at a dosage volume of 100 μl/mouse by intraperitoneal (IP) injection twice daily, 3 hrs apart on days 1 and 2. On study day 0 and for 8 consecutive days, mice were administered intranasally with PBS (vehicle) or one of the peptides at 1 mg/kg in 12 μl/mouse. All peptides used in in vivo studies were synthesized by LifeTein and were modified with N terminal acetylation and C terminal amidation. For intranasal instillation, each mouse was mildly anesthetized (2.5% Isoflurane) then restrained and held with the neck parallel to the table while a total volume of 12 μl was administered into the nostril. Six (6) μl was administered to the left nostril as two 3 μl drops, followed by a 15 sec hold, and 6 μl was administered to the right nostril as two 3 μl drops, followed by a 15 seconds hold. On day 8 the animals were euthanized by cervical dislocation. Immediately after euthanasia, the brains were removed and the striata dissected (left and right striatum were pooled), weighed and frozen in dry ice. The striata samples were homogenized in a solution containing 0.1 M perchloric acid and 10 ng/ml 3,4 dihydroxybenzylamine (DHBA) by 5 seconds sonication at 80 W. The supernatants of each tissue extract were injected directly to HPLC pump (Jasco PU-2080Plus) onto a reverse phase column (GL-Science, Inertsil ODS-2 5 um 4.6×150 mm at room temperature) coupled to an electrochemical detector Coulochem II ESA with a conditioning cell model 5021 and analytical cell model 5011. The working potential was set to 0.35V on the conditioning cell and 0.1V and −0.35V on the analytical cell. The mobile phase was 0.05M monobasic sodium phosphate, with 80 mg/L EDTA, 125 mg/L heptane sulfonic acid, 55 ml of methanol and 50 ml of acetonitrile pH=2.7. The flow rate was 1.5 ml/min. The dopamine, DOPAC and HVA values were normalized to the lysate protein concentration (BCA kit, Pierce).
In this model, repeated itraperitoneal injections of MPTP (18 mg/kg at 3-h intervals on two consecutive days) result in dopaminergic neuronal death in the substantia nigra and dopamine depletion of the striatum. The peptides (or vehicle) were applied twice daily by intranasal instillation at 1 mg/kg starting 1 day prior to exposure to MPTP and continued until the end of the study. 7 days after the injection of MPTP mice were sacrificed and striatal levels of dopamine (DA), […] (DOPAC) and homovanillic acid (HVA) were evaluated by HPLC.
Specifically Table 2 illustrates the effect of human V6 and V 10-derived peptides (1 mg/kg, intranasal administration) on the striatal level of dopamine and metabolites in MPTP-treated mice. Mice were treated according to the protocol described in the Materials and Methods. Striatal levels of DA, DOPAC and HVA were determined by HPLC, divided by the total protein content value and normalized to the levels obtained in vehicle treated mice. Groups 1 and 3 treated with 1:1 mix of normal designated and retro-inverso analog (D amino acids at reversed sequence). Group 6 was treated with 1:1 mix of 10B2.5—6 and 10B2.5—9 peptides.

For series [1], the system named is N2A mouse neuroblastoma cells. As to the kind of experiment: Protection of N2A cells from 6-OHDA (viability, alamar blue). It is filed as cell-based. The note with it: 30 or 40 μM 6-OHDA 22 hrs, peptide 10 fM and 1 μM. As for the experimental part:
All peptides were synthesized by LifeTein (South Pleinfield, N.J., USA) at >95% purity. N2A mouse neuroblastoma and SK-N-SH human neuroblastoma (ATCC) were maintained in Dulbecco's modified Eagle's medium supplemented with 10% fetal calf serum, L-Glut and 1% Penicillin-Streptomycin (Beit Haemek, Israel). Cells were maintained in an incubator at 37° C. with 5% CO2. SK-N-SH cells were treated with 3 μM RA (Sigma-Aldrich) for 5 days prior to each experiment to allow the cells to differentiate towards neuronal cells. […] The intensity of the water soluble dye is proportional to the number of metabolic active cells. […] The viability assay was followed by caspase 3 assay (EnzChek Caspase3 Assay kit, Invitrogen, Carlsbad, Calif., USA) according to the manufacture's instructions
All methods are the same as in Example 1 above. Peptides and 6-hydroxydopamine were purchased from Sigma-Aldrich (St. Lewis, USA).
These peptides were screened for their protective effect on 6-hydroxydopamine (6-OHDA) treated N2A cells at 1 pM concentration. 6-OHDA is a dopamine analogue that is commonly used in model systems to mimic Parkinson's disease in vitro and in vivo, 6-OHDA induces apoptosis through release of reactive oxygen species (ROS) and by a possible direct effect on the mitochondrial respiratory chain. […] The protective effect of some of the peptides was tested in a wide dose range. […] The peptide panel was also tested for their effect on Aβ (25-35) induced toxicity in SK-N-SH human neuroblastoma cells at pM concentration. The profile of peptides effective against the Aβ stress was strikingly different than the 6-OHDA-effective peptides (FIGS. 7A-B).
The peptides shown on Table 3 were tested for their effect in protecting N2A from 6-OHDA (FIG. 8). […] Such modifications include C-terminus truncation (26-1, 26-2 and 26-3), replacement of the N-terminal glutamic acid residue with glutamine and histidine at position 7 with alanine (26-8 and 26-9, respectively).
In general terms: Alamar Blue is a resazurin reagent that responds to reducing activity.

Series [2] is described as follows: Pharmacokinetics after subcutaneous administration in rats (plasma, LC-MS/MS). It is filed as in vivo, Sprague Dawley rats. The note with it: subcutaneous 1 mg/kg; for Cmax: male, Sprague-Dawley, sc, rat plasma, read-out: apparent Cmax. On the procedure: The pharmacokinetics of the peptides was evaluated following SC peptide administration in male Sprague Dawley rats. Peptide solution was prepared using phosphate buffer saline (pH 7.4) as vehicle and was administered through subcutaneously at the dose of 1 mg/kg with dosing volume of 2 mL/kg.
Blood samples were collected at 0 (pre-dose) and 0.17, 0.5, 1, 2, 4, 8 and 24 hours following administration. At each time point, approximately 0.25 mL of blood was withdrawn through jugular vein of the cannulated rats and transferred to a pre-labeled microfuge tube containing 200 mM K2EDTA (20 μL per mL of blood). Following sampling equal volume of heparinized saline was flushed in to catheter. Blood samples were centrifuged at 5000 g for 5 minutes at 4±2° C. All the plasma samples were stored below −70° C. until analysis. A fit-for-purpose LC-MS/MS method was used for the quantification of the peptides in plasma samples. The lower limit of quantification (LLOQ) was 22.34 ng/mL.

Series [3] relates to Met tyrosine kinase receptor. To be noted: literature reference [24]; cited from earlier work.
Series [4] relates to Aβ(1-42) microinjection rat model. As to the kind of experiment: Aβ(1-42) microinjection rat model, IH/ICV peptide, novel object recognition. It is filed as in vivo, Sprague Dawley rats. The note with it: 21 days after Aβ injection, p<0.01 versus vehicle. As for the experimental part: Aβ(1-42) (Sigma-Aldrich, USA), was dissolved in filtered PBS at the concentration of 6 μg/μl, and the solution kept at 37° C. for 2 days before use. One microliter of the solution was injected by means of a microsyringe into the right hippocampus under sodium pentobarbital (55 mg/kg i.p.) anesthesia at the stereotaxic coordinates: AP=−3.6, ML=2.0, from Bregma and DV=3.0 from the skull. Control rats were injected with 1 μl of PBS. In the IH/ICV study, 1 μl of the peptide or PBS was also injected into the right hippocampus at the same stereotaxic coordinates.
For ICV injection, a microinjection cannula was planted into the lateral cerebral ventricle according to the following stereotaxic coordinates: AP=−1, ML=1.6, DV=3.8. […]
The training apparatus was a black Plexiglas box (50×50×40 cm) placed in a sound-attenuating cabinet which was located in a brightly lit and isolated room. […] During the training trial, the rat was placed in the box and allowed to explore two identical objects for 10 min and the total time spent exploring both objects was recorded. […] The rat was placed in the box for 3 min and the time spent exploring each object and the total time spent exploring both objects were recorded. The discrimination index used to assess memory was calculated as the difference in time exploring the novel and familiar object, expressed as the ratio of the total time spent exploring both objects. […]

Here are results for 16 compounds from US20140045764A1, “NEUROPROTECTIVE PEPTIDES” (Neurim Pharmaceuticals (1991) Ltd., priority 2012, published 2014).

Marks after values point to notes of the source that are not given here.

Take “hV10A2: human CD44V10-derived peptide, SEQ ID NO: 12; sequence not printed (TKESRTFIPVTSAKT; Human V10A2 peptide)”: in the series on MPTP-treated mice (1 mg/kg intranasal), the “levels of at least one of the 2 DA metabolites, DOPAC and HVA” value (“levels” below) is listed as “increased significantly”. In the series with MPTP-treated mice, the DA was found to be 24.7, the DOPAC is 54.8 * and the HVA is 73.4 **.
With NVNRSLSGD (Human V10B2.5_9 peptide), the “levels” value in the series with MPTP-treated mice (1 mg/kg intranasal) is given as “increased significantly”.
Regarding EGYTS (Human 26-3 peptide), in series [1], the “activity in protecting N2A from 6-OHDA” value is on record as “maintaining at least partial activity”.
`CC(=O)N1CCC[C@@H]1C(=O)N[C@H](Cc1ccc(O)cc1)C(=O)N[C@H](Cc1c[nH]cn1)C(=O)N[C@H](CO)C(=O)N[C@@H](C(=O)N[C@H](Cc1ccc(O)cc1)C(=O)NCC(=O)N[C@H](CCC(=O)O)C(N)=O)[C@H](C)O` (relative stereo) [26-RI, *P*Y*H*S*T*Y*G*E]: the Cmax (as a rule, the highest concentration seen after dosing) in series [2] worked out at 1230 ng/mL. Besides, in series [2] (rat), the “improvement of Cmax compared to P26” value is recorded as 10 fold.
With TTLLEG (Human V10A1_N6 peptide), in the series with MPTP-treated mice, the DA is 17.7, the DOPAC worked out at 24.3 and the HVA is on record as −0.7.
Turning to NVNRSL (Human V10B2.5_6 peptide), the “levels” value in the series with MPTP-treated mice (1 mg/kg intranasal) is “increased significantly”.
Take “hV10B3: human CD44V10-derived peptide, SEQ ID NO: 15; sequence not printed (SLSGDQDTFHPSG; Human V10B3 peptide)”: the “levels” value in the series on MPTP-treated mice (1 mg/kg intranasal) is given as “increased significantly”. In addition, in the series on MPTP-treated mice, the DA is given as 18.1, the DOPAC turned out to be 22.5 and the HVA is reported as 44.2 *.
On to QGYTSHYP (Human 26-8 peptide), for which, in series [1], the “activity in protecting N2A from 6-OHDA” value is listed as “maintaining at least partial activity”.
As to “NRWHE (A pentapeptide derived from the human V6)”, in series [3], the “inhibiting hepatocyte growth factor (HGF) signal transduction through Met tyrosine kinase receptor” value was “capable of inhibiting”.
Turning to “Ac-EGYTSHYP-NH2 (N-terminus and C-terminus assumed) [V10A1_N+4, EGYTSHYP]”, the Cmax in series [2] was determined as 130 ng/mL.
Consider EGYTSHY (Human 26-1 peptide), for which the “activity in protecting N2A from 6-OHDA” value in series [1] is given as “maintaining at least partial activity”.
The same measure, in the same setting: next, EGYTSH (Human 26-2 peptide): “maintaining at least partial activity”.
Turning to PVTSAKTGSFG [V10A/B_S], in the series with MPTP-treated mice, the DA came to 26.6, the DOPAC is given as 27.2 and the HVA was 13.7.
For “FGVTAVTV (Human V10B1_8 peptide (also referred to as P34))”, in the series with MPTP-treated mice (1 mg/kg intranasal), the “effect on striatal DA level compared to the vehicle control” value is listed as “significantly positive effect”; the “levels” value is “increased significantly”. Besides, in the series with MPTP-treated mice, the DA was 46.6 *, the DOPAC is given as 75.9 ** and the HVA is on record as 83.3 **. The “discrimination index, novel object recognition” value in series [4] (10 ng/rat IH/ICV) is “increased significantly”. Moreover, the “discrimination index, novel object recognition” value in series [4] (100 ng/rat IH/ICV) is listed as “increased significantly”.
Turning to EDSH (Human V6B1_C4 peptide) [hV6B1_C4], in the series with MPTP-treated mice, the DA is 20.7, the DOPAC came to 41.7 and the HVA worked out at 16.6.
Take EGYTSAYP (Human 26-9 peptide): the “activity in protecting N2A from 6-OHDA” value in series [1] is “maintaining at least partial activity”.
